According to PubChem BioAssay AID248 (DTP/NCI, 2004):
Where “and” joins values, the source holds several entries; their conditions need not be identical. Equal entries are not always repeated. Inconclusive results and toxic doses are left out. No stated cut-off is given here; in the data, active means T/C of 150% or more; inactive means T/C below 125%.

System: L1210 leukemia ip in BDF1 mice, survival T/C
Experiment: NCI In Vivo Anticancer Drug Screen. Data for tumor model L1210 Leukemia (intraperitoneal) in B6D2F1 (BDF1) mice
Settings: endpoint: mean survival time, higher = longer survival
Procedure, shortened: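 Each compound was tested against a transplantable tumor grown in mice. The endpoint was survival, with treated animals benchmarked against vehicle controls as a simple ratio.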

[1] = dose: 100.0 mg/kg/injection, schedule: Q04DX003 (ip), vehicle: Klucel (hydroxypropylcellulose) (HPC)
[2] = dose: 200.0 mg/kg/injection, schedule: Q04DX003 (ip), vehicle: Klucel (hydroxypropylcellulose) (HPC)
[3] = dose: 400.0 mg/kg/injection, schedule: Q04DX003 (ip), vehicle: Klucel (hydroxypropylcellulose) (HPC)
[4] = dose: 50.0 mg/kg/injection, schedule: Q01DX001 (ip), vehicle: saline
[5] = dose: 100.0 mg/kg/injection, schedule: Q01DX001 (ip), vehicle: saline
[6] = dose: 200.0 mg/kg/injection, schedule: Q01DX001 (ip), vehicle: saline
[7] = dose: 400.0 mg/kg/injection, schedule: Q01DX001 (ip), vehicle: saline
[8] = dose: 100.0 mg/kg/injection, schedule: Q01DX009 (ip), vehicle: saline with Tween-80
[9] = dose: 200.0 mg/kg/injection, schedule: Q01DX009 (ip), vehicle: saline with Tween-80
[10] = dose: 400.0 mg/kg/injection, schedule: Q01DX009 (ip), vehicle: saline with Tween-80
[11] = dose: 100.0 mg/kg/injection, schedule: Q04DX003 (ip), vehicle: saline
[12] = dose: 200.0 mg/kg/injection, schedule: Q04DX003 (ip), vehicle: saline
[13] = dose: 100.0 mg/kg/injection, schedule: Q01DX001 (ip), vehicle: carboxymethylcellulose (CMC)
[14] = dose: 200.0 mg/kg/injection, schedule: Q01DX001 (ip), vehicle: carboxymethylcellulose (CMC)
[15] = dose: 400.0 mg/kg/injection, schedule: Q01DX001 (ip), vehicle: carboxymethylcellulose (CMC)
[16] = dose: 100.0 mg/kg/injection, schedule: Q01DX009 (ip), vehicle: Klucel (hydroxypropylcellulose) (HPC)
[17] = dose: 200.0 mg/kg/injection, schedule: Q01DX009 (ip), vehicle: Klucel (hydroxypropylcellulose) (HPC)
[18] = dose: 400.0 mg/kg/injection, schedule: Q01DX009 (ip), vehicle: Klucel (hydroxypropylcellulose) (HPC)
[19] = dose: 400.0 mg/kg/injection, schedule: Q04DX003 (ip), vehicle: saline

Measured: T/C

O=C1/C(=C/c2ccccc2[N+](=O)[O-])CCc2ccccc21
inactive: dose: 100.0 mg/kg/injection, schedule: Q04DX003 (ip), vehicle: acetone 96 % of control | dose: 200.0 mg/kg/injection, schedule: Q04DX003 (ip), vehicle: acetone 106 % of control | dose: 400.0 mg/kg/injection, schedule: Q04DX003 (ip), vehicle: acetone 95 % of control

CCOC(=O)C1CCCN(S(=O)(=O)c2ccc(C)cc2)c2ccccc2C1=O (configuration not stated)
inactive: [1] 93 % of control | [2] 102 % of control | [3] 94 % of control

O=C1c2cccc3cccc(c23)C(=O)N1CCCCCCCCCCN1C(=O)c2cccc3cccc(c23)C1=O
inactive: dose: 50.0 mg/kg/injection, schedule: Q01DX009 (ip), vehicle: gum acacia 93 % of control | dose: 100.0 mg/kg/injection, schedule: Q01DX009 (ip), vehicle: gum acacia 94 % of control and 89 % of control | dose: 100.0 mg/kg/injection, schedule: Q04DX003 (ip), vehicle: gum acacia 93 % of control | dose: 200.0 mg/kg/injection, schedule: Q04DX003 (ip), vehicle: gum acacia 86 % of control | dose: 400.0 mg/kg/injection, schedule: Q01DX009 (ip), vehicle: gum acacia 89 % of control | dose: 400.0 mg/kg/injection, schedule: Q04DX003 (ip), vehicle: gum acacia 90 % of control

CC1=C(C)C23OCC(CO2)CC3=C(C)C1=O
inactive: dose: 100.0 mg/kg/injection, schedule: Q01DX001 (ip), vehicle: saline with Tween-80 93 % of control | dose: 200.0 mg/kg/injection, schedule: Q01DX001 (ip), vehicle: saline with Tween-80 122 % of control | dose: 400.0 mg/kg/injection, schedule: Q01DX001 (ip), vehicle: saline with Tween-80 104 % of control

CC(C)(C)c1ccc(N)cc1Br
inactive: dose: 12.5 mg/kg/injection, schedule: Q01DX009 (ip), vehicle: saline with Tween-80 95 % of control | dose: 25.0 mg/kg/injection, schedule: Q01DX009 (ip), vehicle: saline with Tween-80 93 % of control | dose: 50.0 mg/kg/injection, schedule: Q01DX009 (ip), vehicle: saline with Tween-80 97 % of control | dose: 100.0 mg/kg/injection, schedule: Q04DX003 (ip), vehicle: saline with Tween-80 92 % of control | dose: 200.0 mg/kg/injection, schedule: Q04DX003 (ip), vehicle: saline with Tween-80 96 % of control

CCCCCCCCCCCCCCCCC1Cc2ccccc2C1
inactive: [4] 98 % of control | [5] 101 % of control | [6] 107 % of control | [7] 101 % of control

CCN(CC)C(C)(C)CCl
inactive: [5] 104 % of control

Cc1cc(N(CCCl)CCCl)ccc1C=Nc1cccnc1
inactive: dose: 50.0 mg/kg/injection, schedule: Q01DX001 (ip), vehicle: other 100 % of control | dose: 100.0 mg/kg/injection, schedule: Q01DX001 (ip), vehicle: other 100 % of control | dose: 200.0 mg/kg/injection, schedule: Q01DX001 (ip), vehicle: other 92 % of control | dose: 400.0 mg/kg/injection, schedule: Q01DX001 (ip), vehicle: other 94 % of control

O=[N+]([O-])c1ncn(C2OC(CO)C(O)C2O)c1Br (configuration not stated)
inactive: [4] 98 % of control | [5] 102 % of control | [6] 102 % of control | [7] 104 % of control

COc1cc(C)cc(C(=O)O)c1
inactive: dose: 100.0 mg/kg/injection, schedule: Q04DX002 (ip), vehicle: saline with Tween-80 97 % of control | dose: 200.0 mg/kg/injection, schedule: Q04DX002 (ip), vehicle: saline with Tween-80 101 % of control | dose: 400.0 mg/kg/injection, schedule: Q04DX002 (ip), vehicle: saline with Tween-80 101 % of control

Cc1ccccc1Sc1ccccc1[N+](=O)[O-]
inactive: [1] 95 % of control | [2] 106 % of control | [3] 103 % of control

Cc1cc(/C=C\[N+](=O)[O-])c(C)c2c1oc1ccccc12
inactive: [5] 88 % of control | [6] 96 % of control | [7] 88 % of control

CCCCC(CC)C(O)CC(O)CC (configuration not stated)
inactive: [8] 92 % of control | [9] 92 % of control | [10] 95 % of control

O=C1OC(=C(Br)Br)C2C3C=CC(C3)C12 (configuration not stated)
inactive: [11] 98 % of control | [12] 107 % of control

O=C(CCN1CC2CCC(CC2)C1)c1csc2ccccc12
inactive: dose: 88.8 mg/kg/injection, schedule: Q01DX001 (ip), vehicle: carboxymethylcellulose (CMC) 93 % of control | [13] 91 % of control | dose: 133.4 mg/kg/injection, schedule: Q01DX001 (ip), vehicle: carboxymethylcellulose (CMC) 98 % of control | [14] 97 % of control | dose: 300.0 mg/kg/injection, schedule: Q01DX001 (ip), vehicle: carboxymethylcellulose (CMC) 95 % of control | [15] 107 % of control

CCOC(=O)c1[nH]c(C)c(C(=O)OC(C)(C)C)c1C
inactive: dose: 100.0 mg/kg/injection, schedule: Q01DX001 (ip), vehicle: Klucel (hydroxypropylcellulose) (HPC) 95 % of control | [1] 95 % of control | dose: 200.0 mg/kg/injection, schedule: Q01DX001 (ip), vehicle: Klucel (hydroxypropylcellulose) (HPC) 93 % of control | [2] 106 % of control | dose: 400.0 mg/kg/injection, schedule: Q01DX001 (ip), vehicle: Klucel (hydroxypropylcellulose) (HPC) 92 % of control | [3] 103 % of control

Cc1[nH]c2ccc([N+](=O)[O-])cc2c(=O)c1[N+](=O)[O-] (tested in a mixture with another compound)
inactive: dose: 50.0 mg/kg/injection, schedule: Q01DX009 (ip), vehicle: Klucel (hydroxypropylcellulose) (HPC) 94 % of control | [16] 87 % of control | [17] 105 % of control

NC(=O)c1ccccc1NC(=O)Nc1ccc(Cl)cc1
inactive: [16] 98 % of control | [17] 96 % of control | [18] 91 % of control

COc1ccc2ncc(CO)cc2c1
inactive: [11] 96 % of control | [12] 98 % of control | [19] 112 % of control

CC(=O)c1ccc(O)cc1
inactive: dose: 100.0 mg/kg/injection, schedule: Q04DX002 (ip), vehicle: Klucel (hydroxypropylcellulose) (HPC) 114 % of control | dose: 200.0 mg/kg/injection, schedule: Q04DX002 (ip), vehicle: Klucel (hydroxypropylcellulose) (HPC) 96 % of control | dose: 400.0 mg/kg/injection, schedule: Q04DX002 (ip), vehicle: Klucel (hydroxypropylcellulose) (HPC) 96 % of control

CC(Cl)CNC(C)C (configuration not stated)
inactive: [5] 103 % of control | [6] 92 % of control | [7] 103 % of control

CC(=O)Nc1c(F)c(F)c(N=Nc2ccccc2)c(F)c1F
inactive: [13] 100 % of control | [14] 102 % of control | [15] 100 % of control

C=CCNc1n[nH]c(=S)s1
inactive: [8] 101 % of control | [9] 95 % of control | [10] 98 % of control

NNC(=O)c1nc(N)n[nH]1
inactive: [8] 98 % of control | [9] 95 % of control | [10] 109 % of control

Cc1cc(C)n(/N=C/c2ccccc2[N+](=O)[O-])c(=O)c1C#N
inactive: [16] 91 % of control | [1] 102 % of control | [17] 92 % of control | [2] 93 % of control | [18] 92 % of control | [3] 96 % of control

CN1C(=O)CC[n+]2ccccc21
inactive: [11] 101 % of control | [12] 104 % of control | [19] 86 % of control
